Laboratory results published in patent publication US20230381774A1, “MICROFLUDIC LAB-ON-CHIP DEVICE, MATRIX, SMALL MOLECULES AND THREE-DIMENSIONAL SPHEROIDS FOR CELL REPROGRAMMING” (The Regents of the University of California, priority 2022, published 2023).

Key:
[1] = test system: BAM-transduced fibroblasts; assay: iN reprogramming on PAAm gels of varying stiffness; assay type: cell-based, mouse; settings: pre-treated for 24 hours before adding Dox
Source text: To determine the role of matrix stiffness on iN reprogramming, adult mouse fibroblasts were transduced with doxycycline-inducible lentiviruses containing the three reprogramming factors Ascl1, Brn2 and Myt1l (BAM), and then seeded onto polyacrylamide (PAAm) gels of various stiffness (40 kPa, 20 kPa, and 1 kPa) coated with fibronectin. Glass coverslips coated with the same ECM protein were used as a rigid glass surface control (FIG. 15a). As shown in FIG. 15b-c, both the cell area and nuclear volume of fibroblasts decreased as the stiffness of the PAAm gel decreased. […] After 7 days, cultures were fixed and immunostained for neuronal marker, neuron-specific class III β-tubulin (Tubb3) in order to identify iN cells and determine the reprogramming efficiency (FIG. 15a). […] To determine whether matrix stiffness could modulate the activation of endogenous Ascl1, fibroblasts were transduced with an Ascl1 promoter driven-GFP construct and reprogrammed for 2 days.

[2] = test system: histone acetyltransferase (HAT); assay: HAT activity in fibroblasts on PAAm gels of varying stiffness; assay type: cell-based, mouse; settings: glass and gels of various stiffness, inhibitor for 24 hours
Source text: FIG. 16. Matrix stiffness modulates histone acetyltransferase (HAT) activity and histone acetylation. (a) Immunofluorescent images of AcH3 in non-transduced fibroblasts cultured on glass and PAAm gels of various stiffness for 2 days. Scale bar, 10 μm. (b) Quantification of AcH3 intensity in cells cultured on glass and PAAm gels of various stiffness (based on experiments in a) (n>40). […] (e) Volcano plot showing differential accessible regions. Red dots indicate regions with increased chromatin accessibility and blue dots regions with decreased accessibility. (f) Heatmap representation of differentially accessible regions that overlap with Ascl1 ChIP-seq peaks (GSE43916: SRX323557). Each row represents a differential region; each column is one biological replicate of the indicated condition. (g) Quantification of HAT activity in fibroblasts cultured on glass and PAAm gels of various stiffness for 2 days, as determined using the Epigenase HAT activity kit (n=6). (h) Quantification of HAT activity in fibroblasts cultured on glass and PA gels of various stiffness for 1 day followed by treatment with vehicle control (DMSO) or a HAT inhibitor (anacardic acid, AA) for 24 hours (n=4). […] In b-i, statistical significance was determined by a one-way ANOVA and Tukey's multiple comparison test (N.S.: Not significant., *p<0.05, **p<0.01, ***p<0.001). […]

[3] = test system: primary human neonatal dermal fibroblasts (hNDFs); assay: Spatial iN reprogramming in 3D spheroids (Tuj1 staining); assay type: cell-based; settings: 3 days of reprogramming, relative to no-treatment controls
Source text: For the reduction to practice, primary human neonatal dermal fibroblasts (hNDFs) were transduced with doxycycline (Dox)-inducible lentiviral vectors for the BAMN factors. After Dox induction in monolayer to ensure unbiased activation of the transgenes, hNDFs were either plated onto Matrigel-coated cover slips as 2D controls or centrifuged in microwells to form 3D aggregates, or “spheroids” (FIG. 9A). The expression of neuron-specific β-tubulin III (Tuj1) was used as a marker of neuronal fate, as is convention. Tuj1 expression began earlier in spheroids than in 2D culture, appearing as early as day 2 (two days after Dox induction and one day after spheroid formation) (FIG. 9BC). To evaluate relative reprogramming efficiency, spheroids were replated onto Matrigel-coated cover slips after three days without enzymatic disaggregation.
Direct reprogramming involves both disruption of the existing regulatory network (generally early on) and establishment of another. The initial nonspecific disruption is often mechanistically associated with cell cycle regulation, cell senescence, chromatin inactivation, and genome stability. To assess the impact of mechanobiological changes associated with spheroid culture on direct reprogramming, primary human neonatal dermal fibroblasts (hNDFs) were transduced with doxycycline (dox)-inducible lentiviral vectors for the BAMN factors. […]

H3K27me3 = assay: Western blotting of H3K27me3; assay type: cell-based, mouse
Method: Equal amounts of total protein (50 μg) from each sample were separated in a 10% SDS-PAGE gel and transferred to a PVDF membrane at 120 V for 2 hours at room temperature. The blot was blocked with 5% nonfat dry milk suspended in 1×TBS (25 mM Tris, 137 mM NaCl, and 2.7 mM KCl) for 1 hour. Membranes were incubated sequentially with primary antibodies and secondary antibodies. Bands were scanned using a densitometer (Bio-Rad) and quantified using the Quantity One 4.6.3 software (Bio-Rad).

CCCCCCCCCCCCCCCc1cccc(O)c1C(=O)O [anacardic acid]
stiffness-dependent reprogramming efficiency under HAT inhibitor [1]: inhibited the biphasic enhancement of HAT activity and the reprogramming efficiency
stiffness-dependent HAT activity under HAT inhibitor [2]: inhibited the biphasic enhancement of HAT activity and the reprogramming efficiency

Cc1cccc(-c2nn(C(=S)Nc3ccccc3)cc2-c2ccnc3ccccc23)n1 [A83-01]
spatial Tuj1+ reprogramming patterns, inhibitor alone [3]: did not affect spatial Tuj1+ reprogramming patterns

CS(=O)(=O)c1ccc(-c2cnc(NCc3ccco3)n3cnnc23)cc1 [EED226]
H3K27me3 level (H3K27me3): inhibited
